Reference: paper PMC11859423, “Fluorescent Probes to Image the KCa3.1 Channel in Tumor Cells” (Pharmaceutics, 2025)

How the values were obtained:
[1] = logP by HPLC retention time correlation; format: physicochemical; settings: standardized reversed phase HPLC system
Experimental: The logP values were recorded using HPLC analysis. Thus, the retention time of the test compound in a standardized reversed phase HPLC system is correlated with the retention times of compounds with known logP values.
In addition to the logD7.4 values, the logP values of the fluorescent probes were recorded by HPLC, i.e., after calibration of the method, the retention times were correlated with the logP values or the compounds [33]. […] Fluorescein-labeled ligands 21a and 21b are considerably more polar than the corresponding bodipy-labeled senicapoc derivatives.

[2] = design: method as in PMID 36315933; settings: previously reported values; cited from earlier work
[3] = target: T1, KCa3.1 channel in A549-3R cells (Homo sapiens, UniProt O15554); design: method as in PMID 36315933; settings: previously reported; cited from earlier work
T1 construct: the non-small cell lung cancer cell line A549-3R with a high expression of the KCa3.1 channel was employed; endogenous in cells; host or cells: A549-3R cells

KCa3.1 channels = settings: read-out: IC50 (KCa3.1 channel); cited from earlier work
[4] = logD7.4 by micro shake flask method (n-octanol / MOPS buffer pH 7.4, LC-MS); format: physicochemical; settings: read-out: logD7.4 ± SD (Micro Shake Flask)
Experimental: The logD7.4 values were recorded using the micro shake flask method. In this method, the test compound is distributed between n-octanol and MOPS buffer pH 7.4, and the amount of the compound in the buffer layer is determined by mass spectrometry.
The new fluorescent dyes were designed to increase the polarity and reduce the non-specific labeling of lipophilic membranes of cells. Moreover, a higher polarity should lead to increased water solubility and thus improved handling of the dyes. The logD7.4 value was recorded as a measure of the polarity/lipophilicity using our recently published micro-shake flask method. According to this method, the amount of compound in the aqueous 3-morpholinopropanesulfonic acid (MOPS) buffer pH 7.4 was determined by LC-MS [31, 32].

[5] = UV-Vis absorption and time-resolved photoluminescence spectroscopy; format: physicochemical; settings: measured in H2O, c = 10^−5 M, 298 K
Experimental: All solvents used were of spectrometric grade (Uvasol®). UV-visible absorption spectra were measured using a Shimadzu UV–VIS spectrophotometer (UV-3600i). Photoluminescence quantum yields were measured with a Hamamatsu Photonics absolute PL quantum yield measurement system (C9920-02) equipped with a L9799-01 CW Xe light source (150 W), a monochromator, a C7473 photonic multi-channel analyzer, an integrating sphere and employing U6039-05 software, version 3.6.0. (Hamamatsu Photonics, Ltd., Shizuoka, Japan). Steady-state excitation and emission spectra were recorded on a FluoTime 300 spectrometer from PicoQuant equipped with a 300 W ozone-free Xe lamp (200–1100 nm), a 10 W Xe-flash lamp (200–1100 nm, pulse width ca. 1 µs) with repetition rates of 1–300 Hz, a double-grating excitation monochromator (Czerny–Turner type, grating with 1200 lines/mm, blaze wavelength: 300 nm), diode lasers (pulse width < 20 ps) operated by a computer-controlled laser driver PDL-828 “Sepia II” (repetition rate up to 80 MHz, burst mode for slow and weak decays), two emission monochromators (Czerny–Turner, selectable between double-grating blazed at 500 nm with 2.7 nm/mm dispersion and 1200 lines/mm, or single-grating blazed at 1250 nm with 5.4 nm/mm dispersion and 600 lines/mm) with adjustable slit width between 25 μm and 7 mm. Glam–Thompson polarizers for excitation (after the Xe-lamps) and emission (after the sample) were used. Different sample holders (Peltier-cooled mounting unit ranging from −15 to 110 °C or an adjustable front-face sample holder), along with two detectors (namely a PMA Hybrid-07 from PicoQuant with transit time spread FWHM < 50 ps, 200–850 nm, or a H10330C-45-C3 NIR detector with transit time spread FWHM 0.4 ns, 950–1400 nm from Hamamatsu) were used. Steady-state spectra and photoluminescence lifetimes were recorded in TCSPC mode by a PicoHarp 300 (minimum base resolution 4 ps) or in MCS mode by a TimeHarp 260 (where up to several ms can be traced). Emission and excitation spectra were corrected for source intensity (lamp and grating) by standard correction curves. For samples with lifetimes in the ns order, an instrument response function calibration (IRF) was performed using a diluted Ludox® dispersion. Lifetime analysis was performed using the commercial EasyTau 2 software, version 2.3. (PicoQuant, Berlin, Germany). The quality of the fit was assessed by minimizing the reduced chi squared function (χ^2) and visual inspection of the weighted residuals and their autocorrelation.
Fluorescence microscopy was used for the analysis of KCa3.1 channel labeling of cells with fluorescent dyes. Therefore, the photophysical properties of fluorescently labeled senicapoc derivatives 15a, 21a, and 22 were determined. Since the fluorophores are separated from the rest of the molecule by a linker, the photophysical properties could be recorded using azide precursors 6a, 6b, and 7a as well.

[6] = target: T1, KCa3.1 channel in A549-3R cells; experiment: Staining of fixed A549-3R tumor cells (Protocol 1), fluorescence microscopy; format: cell-based; settings: 10 µM in PBS, 10 min, 4 °C, Protocol 1
Experimental: For the fixation of the cells, the DMEM medium was removed from the glass bottom dish after incubation for 24 h, and the cells were washed with 1 mL of PBS. Subsequently, 1 mL of 4% paraformaldehyde in PBS solution was added to the glass bottom dish and the mixture was incubated for 30 min at room temperature. Thereafter, the cells were washed five times with 1 mL of PBS and used for the cell staining experiments.
After fixation of the cells (Section 2.10.2), 300 µL of the 10 µM staining solution was added to the glass bottom dish. The cells were incubated for 10 min at 4 °C in a dark chamber. After incubation, the cells were washed five times with 1 mL of PBS and used subsequently for fluorescence microscopy.
An Axiovert 200 inverted microscope (Carl Zeiss AG, Jena, Germany) with a ×100 oil immersion objective and a digital camera (SPOT RT SE from Diagnostic Instruments Inc., Livingston, UK) were used. The camera was controlled by MetaVue software (version 6.3r6, Visitron, Germany). Two different filter sets were employed, the FITC filter set (Carl Zeiss Filter Set 10 bandwidth excitation filter 450–490, color splitter 510, bandpass filter 515–565) and the TRITC filter set (Carl Zeiss Filter Set 15, bandpass excitation filter 546/12, dichroic mirror 580, emission filter Long Pass 590).
Using the free imaging software ImageJ (1.53f51, NIH, USA), squares with an edge length of 50 × 50 pixels, corresponding to an area of 9 µm^2, were randomly placed in a cell and signals with Full Width at Half Maximum (FWHM) of ≤5 pixels (~300 nm) were counted as a KCa3.1 channel. For the evaluation, 7 squares were analyzed.
For the staining experiments, the non-small cell lung cancer cell line A549-3R with a high expression of the KCa3.1 channel was employed. An optimized staining protocol (Protocol 1) described previously was followed to analyze the imaging properties of the fluorescent probes. In brief, the 10 µM solution of the senicapoc–dye conjugate in PBS was added to adherent A549-3R cells in a glass bottom dish and the set-up was incubated for 10 min at 4 °C in a dark chamber. After careful washing, the cells were analyzed with a fluorescence microscope.
The images were analyzed with respect to size and density of the fluorescent dots. For this purpose, a square with a size of 50 × 50 pixels was randomly placed on the cell images using ImageJ. The intensities of the signals within the square were analyzed to calculate the Full Width at Half Maximum (FWHM) for each selected dot, which represents a measure for the signal size. For the accurate representation of a single KCa3.1 channel, the FWHM should be in the range of five pixels. Signals with a FWHM of ≤5 pixels within the square were regarded as labeled KCa3.1 channels and the number of identified channels was used to determine the density of the ion channels on the cells (Figure S8, Supplementary Materials).

## CO[B-]1(F)n2c(C)cc(C)c2C(c2ccc(OCCOCCn3cc(COc4ccc(C(C(N)=O)(c5ccccc5)c5ccc(F)cc5)cc4)nn3)cc2)=C2C(C)=CC(C)=[N+]21 (stereo not drawn) [10a]
[1]
  chromatographic logP: 4.4
[2]
  logD7.4 ± SD (Micro Shake Flask): 4.60 ± 0.23
[3]
  staining properties: promising staining properties

## NC(=O)C(c1ccccc1)(c1ccc(F)cc1)c1ccc(F)cc1 [senicapoc]
KCa3.1 channels
  IC50: 11 nM

## NC(=O)C(c1ccccc1)(c1ccc(F)cc1)c1ccc(OCCOCCNC(=S)Nc2ccc3c(c2)C(=O)OC32c3ccc(O)cc3Oc3cc(O)ccc32)cc1 (stereo not drawn) [21a, 2-[4-(2-{2-[3-(3′,6′-Dihydroxy-3-oxo-3H-spiro[[2]benzofuran-1,9′-xanthen]-5-yl)thioureido]ethoxy}ethoxy)phenyl]-2-(4-fluorophenyl)-2-phenylacetamide]
[4]
  logD: 1.69 ± 0.04
[1]; HPLC at pH 6.0
  chromatographic logP: 1.5
[5]
  Absorption λmax: 496 nm
  Emission λmax: 521 nm
  Stokes Shift: 25 nm
  ΦF absolute quantum yield: 0.32 ± 0.02
  τ photoluminescence lifetime: 4.21 ± 0.02 ns
[6]
  staining pattern of fixed A549-3R tumor cells: A weak green fluorescence of the membrane and an intense staining of the nucleus

## CC1=CC(C)=[N+]2C1=C(c1ccc(OCCOCCn3cc(COc4ccc(C(C(N)=O)(c5ccccc5)c5ccc(F)cc5)cc4)nn3)cc1)c1c(C)cc(C)n1[B-]2(F)F (stereo not drawn) [9a]
[1]
  chromatographic logP: 5.4
[2]
  logD7.4 ± SD (Micro Shake Flask): 4.73 ± 0.03
[3]
  staining properties: promising staining properties
